Here are results for 2 molecules from patent US6030943A, “Dehydrodidemnin B as an L-type calcium channel enhancer” (priority 1998, dated 2000).

One data set has as its system L-type calcium channel. Put plainly: Whole-cell patch clamp measurement of calcium current (ICa) in isolated human atrial myocytes. The class given is cell-based. The note with it: for action on human atrial ICa (current amplitude): whole-cell patch clamp, 22° C., composite dose-response curve (FIG. 2), compared with cells not exposed to drug. The procedure: Human atrial myocytes were obtained from specimens of human right atrial appendage obtained during surgery from hearts of patients undergoing cardiopulmonary bypass. Tissue samples were quickly immersed in a cardioplegia solution consisting of (in mmol/L): 50 KH2 PO4, 8 MgSO4, 10 NaHO3, 5 adenosine, 25 taurine, 140 glucose, and 100 mannitol, titrated to a pH of 7.4 and bubbled with 100% O2 at 0-4° C. Specimens were then minced into 0.5-1 mm cubes and transferred to a 50 ml conical tube containing an ultra-low calcium wash solution containing (in mmol/L); 137 NaCl, 5 KH2 PO4, 1 MgSO4, 10 taurine, 10 glucose, 5 HEPES, and 100 μmol/L (μM) EGTA; pH=7.4 (22-24° C.).
The tissue was next gently agitated by continuous bubbling with 100% O2 for 5 minutes. The tissue was then incubated in 5 ml of solution containing (in mmol/L): 137 NaCl, 5 KH2 PO4, 10 taurine, 10 glucose, 5 HEPES, supplemented with 0.1% bovine albumin, 2.2 mg/ml collagenase type V and 1.0 mg/ml protease type XXIV (Sigma Chemical), pH=7.4 (37° C.) and bubbled continuously with 100% O2. The supernatant was removed after 40 minutes and discarded. The chunks were incubated in a solution of the same ionic composition but supplemented with only collagenase and 100 μmol/L CaCl2.
Microscopic examination of the medium was performed every 5-10 minutes to determine the number and quality of the isolated cells. When the yield appears to be maximal, the cell suspension was centrifuged for 2 minutes and the resulting pellet was resuspended in a modified Kraftbruhe solution containing (in mmol/L): 25 KCl, 10 KH2 PO4, 25 taurine, 0.5 EGTA, 22 glucose, 55 glutamic acid, and 0.1% bovine albumin, pH=7.3 (22-24° C.). Cells were used within 8 hrs after isolation. […]
Ionic currents were measured using the whole-cell variant of the patch clamp technique. […]
Calcium (Ca) currents were measured using an external solution having the composition (in mM): 1.8 CaCl2, 137 NaCl, 20 CsCl, 4 KCl, 1 MgCl2, 10 HEPES, 10 dextrose pH=7.4 with NaOH. […]

Data set [1] can be described thus: Effect on blood pressure (statement, no method described). The note with it: in vivo.

Starred links: 1 amine or outer side, 2 acyl side, 3 side chain; linkers in the order of their positions; H or OH if unused. Positions of bridges follow the written chain, without caps; N, C: chain ends. Non-standard residues stand in square brackets, D forms with d. Residues, ends and D or L forms follow the SMILES beside them. *: point of attachment. X1 = CC[C@H](C)[C@@H](N[*:1])[C@@H](O)CC(=O)O[C@H](C(=O)[C@H](C)C(=O)[*:2])C(C)C; NMeY = CN[C@@H](Cc1ccc(O)cc1)C(=O)O; dNMeL = CN[C@H](CC(C)C)C(=O)O; Pyruvoyl = CC(=O)C(=O)*

Regarding `CC[C@H](C)[C@H]1NC(=O)[C@@H](NC(=O)[C@@H](CC(C)C)N(C)C(=O)[C@@H]2CCCN2C(=O)C(C)O)[C@@H](C)OC(=O)[C@H](Cc2ccc(OC)cc2)N(C)C(=O)[C@@H]2CCCN2C(=O)[C@H](CC(C)C)NC(=O)[C@@H](C)C(=O)[C@H](C(C)C)OC(=O)C[C@@H]1O` (stereo partly shown) [Didemnin B], the “action on human atrial ICa (current amplitude)” value in the data set with L-type calcium channel is listed as “no effect”.

For `CC[C@H](C)[C@H]1NC(=O)[C@@H](NC(=O)[C@@H](CC(C)C)N(C)C(=O)[C@@H]2CCCN2C(=O)C(C)=O)[C@@H](C)OC(=O)[C@H](Cc2ccc(OC)cc2)N(C)C(=O)[C@@H]2CCCN2C(=O)[C@H](CC(C)C)NC(=O)[C@@H](C)C(=O)[C@H](C(C)C)OC(=O)C[C@@H]1O` [Aplidine, dehydrodidemnin B] (Pyruvoyl-P[dNMeL]T[X1]LP[NMeY](Me); ester 3-C), the “effect on blood pressure” value in data set [1] is reported as “no effect on blood pressure”. Besides, the “L-type calcium channel enhancement” value with L-type calcium channel (FIGS. 1A, 1B and 2) is recorded as “potent L-type calcium channel enhancer”. Further, the “action on human atrial ICa (current amplitude)” value with L-type calcium channel is given as “highly effective, producing a very large increase in current amplitude”.
